Assays:
Human recombinant MMP-2 = target: T1, Human recombinant MMP-2 (Homo sapiens, UniProt P08253); assay: In vitro MMP inhibition analysis (fluorogenic peptide substrate cleavage), Ki; format: biochemical; conditions: Table 2
T1 construct: made in house; host or cells: MMP-2-transfected p2AHT2 cells
T1 sequence (P08253 110-660): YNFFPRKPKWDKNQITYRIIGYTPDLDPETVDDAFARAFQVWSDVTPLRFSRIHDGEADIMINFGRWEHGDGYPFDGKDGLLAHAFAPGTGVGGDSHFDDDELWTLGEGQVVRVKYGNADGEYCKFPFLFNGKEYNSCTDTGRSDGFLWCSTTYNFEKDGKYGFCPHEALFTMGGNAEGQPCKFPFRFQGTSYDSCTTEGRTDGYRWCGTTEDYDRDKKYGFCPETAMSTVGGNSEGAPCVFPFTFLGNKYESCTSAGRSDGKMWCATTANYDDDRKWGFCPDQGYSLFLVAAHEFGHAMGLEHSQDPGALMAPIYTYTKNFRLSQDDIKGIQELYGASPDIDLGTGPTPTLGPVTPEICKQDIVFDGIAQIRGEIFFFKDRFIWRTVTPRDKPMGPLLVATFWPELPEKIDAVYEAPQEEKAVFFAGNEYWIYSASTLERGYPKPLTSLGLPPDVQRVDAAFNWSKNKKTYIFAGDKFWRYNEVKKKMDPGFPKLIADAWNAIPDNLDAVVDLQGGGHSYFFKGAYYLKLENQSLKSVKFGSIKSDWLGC
Experimental: (§1) Several compounds and salts were analyzed in an in vitro assay to determine their ability to inhibit the MMP cleavage of peptide substrates. Inhibition constant (Ki) were calculated from the assayed compound-MMP interactions.
(§2) Human recombinant MMP-1, MMP-2, MMP-9, MMP-13, and MMP-14 were used in this assay. All enzymes were prepared in Assignee's laboratories following usual laboratory procedures. Protocols for the preparation and use of these enzymes are available in the scientific literature. See, e.g., Enzyme Nomenclature (Academic Press, San Diego, Calif., 1992) (and the citations therein). See also, Frije et al., J. Biol. Chem., 26(24), 16766-73 (1994).
The MMP-2 proenzyme was purified by gelatin Sepharose chromatography from MMP-2-transfected p2AHT2 cells provided by Dr. Gregory Goldberg of Washington University (St. Louis, Mo.).
(§3) All MMPs were activated using 4-aminophenylmercuric acetate (“APMA”, Sigma Chemical, St. Louis, Mo.) or trypsin. MMP-9 also was activated using human recombinant MMP-3 (purified in Assignee's laboratory following standard cloning and purification techniques).
(§4) The following fluorogenic, methoxycoumarin-containing polypeptide substrate (I) was used in the MMP inhibition assays: MCA-ArgProLeuGlyLeuDpaAlaArgGluArgNH2 (I) “MCA” is 7-methoxycoumarin-4-yl acetyl. Substrate (I) was prepared Assignee's laboratory. In the absence of MMP inhibitory activity, the substrate is cleaved at the Gly-Leu peptide bond. This cleavage separates the highly fluorogenic peptide from the 2,4-dinitrophenyl quencher, thus resulting in increase of fluorescent intensity.
(§5) The stock solutions of the assayed compounds and salts were prepared in […] (DMSO). These stock solutions were diluted in Buffer A (100 mM Tris-HCl, 100 mM NaCl, 10 mM CaCl2, 0.05% polyoxyethylene 23 lauryl ether, pH 7.5) to obtain solutions with different compound concentrations, i.e., assay solutions with different concentrations of the assayed […] compound. The experiment controls contained the same amount of Buffer A/DMSO as the assayed sample, but contained none of the tested compound or salt.
(§6) The assays from which the Ki determinations were made were performed as follows. The assayed compound samples were incubated in separate wells of untreated white polystyrene plates (Nunc Nalgene International, Rochester, N.Y.), and analyzed on a Tecan SpectraFlour Plus plate reader. The excitation wavelength was 330 nm, and the emission wavelength—420 nm. All samples (assayed compounds and controls) were incubated in separate plate wells at room temperature for 1 hr in the presence of 4 μM of MMP substrate (I). In the absence of MMP inhibitory activity, substrate (I) was cleaved at the Gly-Leu bond resulting in an increase of relative fluorescence. Inhibition was observed as a reduced rate of this increase in relative fluorescence. […] This protocol is a modification of method by Knight et al., FEBS Lett., 296(3), 263-266 (1992). Apparent inhibitory constants were determined by non-linear regression of reaction velocity as a function of inhibitor and enzyme concentration using Morrison's equation, as described by Kuzmic, Anal. Biochem. 286, 45-50 (2000). Modifications were made in the non-linear regression method to allow a common control reaction rate and effective enzyme concentration to be shared between all dose-response relationships on a given assay plate. Since the substrate concentration was chosen to be at or below the Km, the apparent Ki's from this analysis were reported as Ki's without correction for the influence of substrate.
(§7) The above protocols were used to determine Ki constants for the compounds in Examples 2-35 above. All Ki values in Table 1 are given in nM units.

Human recombinant MMP-1 = target: T2, Human recombinant MMP-1 (Homo sapiens, UniProt P03956); assay: as above; format: biochemical; conditions: Table 2
T2 construct: made in house; host or cells: MMP-1-transfected HT-1080 cells (spent media)
T2 sequence (P03956 100-469): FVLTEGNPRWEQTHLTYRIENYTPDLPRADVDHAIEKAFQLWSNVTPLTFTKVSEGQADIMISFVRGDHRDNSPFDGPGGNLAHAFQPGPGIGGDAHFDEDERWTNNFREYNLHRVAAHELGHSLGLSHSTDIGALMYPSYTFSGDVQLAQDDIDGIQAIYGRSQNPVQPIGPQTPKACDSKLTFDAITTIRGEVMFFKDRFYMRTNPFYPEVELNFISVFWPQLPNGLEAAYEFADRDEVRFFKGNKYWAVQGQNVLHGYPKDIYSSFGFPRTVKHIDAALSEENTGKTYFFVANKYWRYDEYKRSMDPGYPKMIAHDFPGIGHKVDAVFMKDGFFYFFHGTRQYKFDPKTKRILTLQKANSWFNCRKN
Experimental: as §1, §2
The MMP-1 proenzyme was purified from the spent media of MMP-1-transfected HT-1080 cells provided by Dr. Harold Welgus of Washington University (St. Louis, Mo.). The protein was purified on a zinc chelating column.
as §3, §4, §5, §6, §7

SMILES	Ki (Human recombinant MMP-2) [nM]	Ki (Human recombinant MMP-1) [nM]
CCCCOc1ccc(-c2ccc(S(=O)(=O)C3(C(=O)NO)CCN(CCOC)CC3)cc2)cc1 [Example 119]	0.093	1770
CCCCOc1ccc(-c2ccc(S(=O)(=O)C3(C(=O)NO)CCN(C4CC4)CC3)cc2)cc1 [Example 120]	0.191	2460
O=C(NO)C1(S(=O)(=O)c2ccc(-c3ncccn3)cc2)CCOCC1 [Example 121]	46.8	1600
CCc1cnc(-c2ccc(S(=O)(=O)C3(C(=O)NO)CCOCC3)cc2)nc1 [Example 122]	5.67	3580
CCc1csc(Nc2ccc(-c3ccc(S(=O)(=O)C4(C(=O)NO)CCOCC4)cc3)cc2)n1 [Example 124]	32.9	> 2500
O=C(NO)C1(S(=O)(=O)c2ccc(-c3ccc(-n4cncn4)cc3)cc2)CCOCC1 [Example 126]	0.18	1240
O=C(NO)C1(S(=O)(=O)c2ccc(-c3ccc(-n4ccnc4)cc3)cc2)CCOCC1 [Example 127]	0.147	1010
O=C(NO)C1(S(=O)(=O)c2ccc(-c3cnc(NCC4CC4)cn3)cc2)CCOCC1 [Example 128]	5.08	> 2500
O=C(NO)C1(S(=O)(=O)c2ccc(-c3ccc(CCC4CCCCC4)cn3)cc2)CCOCC1 [Example 129]	0.94	4410
CC(C)(C)CCNc1cnc(-c2ccc(S(=O)(=O)C3(C(=O)NO)CCOCC3)cc2)cn1 [Example 130]	14.2	> 1250
O=C(NO)C1(S(=O)(=O)c2ccc(-c3cnc(N4CCCCC4)cn3)cc2)CCOCC1 [Example 131]	0.89	> 10000
O=C(NO)C1(S(=O)(=O)c2ccc(-c3cscc3-c3ccc(F)cc3)cc2)CCOCC1 [Example 132]	153	> 10000
O=C(NO)C1(S(=O)(=O)c2ccc(-c3ccc(CCC(F)(C(F)(F)F)C(F)(F)F)cn3)cc2)CCOCC1 [Example 133]	11.9	7400
O=C(NO)C1(S(=O)(=O)c2ccc(-c3noc(-c4ccc(F)cc4)n3)cc2)CCOCC1 [Example 134]	1.13	5910
CCN1CCC(C(=O)NO)(S(=O)(=O)c2ccc(-c3ccc(Oc4ccccc4)cc3)cc2)CC1 [Example 135]	4.22	> 10000
CCN1CCC(C(=O)NO)(S(=O)(=O)c2ccc(-c3ccc(-c4ccncc4)cc3)cc2)CC1 [Example 136]	0.074	1070
O=C(NO)C1(S(=O)(=O)c2ccc(-c3ncc(CCC(F)(F)C(F)(F)F)cn3)cc2)CCOCC1 [Example 137]	2.72	> 10000
O=C(NO)C1(S(=O)(=O)c2ccc(-c3cnc(N4CCCC4)cn3)cc2)CCOCC1 [Example 138]	0.218	> 10000
CCCCc1ccc(-c2ccc(S(=O)(=O)C3(C(=O)NO)CCN(CC)CC3)cc2)cn1 [Example 139]	9	> 10000

SMILES	Ki (Human recombinant MMP-2) [nM]	Ki (Human recombinant MMP-1) [nM]
CCCCc1ccc(-c2ccc(S(=O)(=O)C3(C(=O)NO)CCN(CC)CC3)cc2)nc1 [Example 140]	0.176	> 10000
O=C(NO)C1(S(=O)(=O)c2ccc(-c3ccc(-c4ccncc4)cc3)cc2)CCOCC1 [Example 141]	0.041	257
O=C(NO)C1(S(=O)(=O)c2ccc(-c3cnc(CCC(F)(F)C(F)(F)F)nc3)cc2)CCOCC1 [Example 142]	53.7	> 10000
O=C(NO)C1(S(=O)(=O)c2ccc(-c3ccc(OCCCC(F)(F)F)cn3)cc2)CCOCC1 [Example 144]	0.037	481
O=C(NO)C1(S(=O)(=O)c2ccc(-c3ccc(-c4ccc(OC(F)(F)F)cc4)cn3)cc2)CCN(C2CC2)CC1 [Example 145]	0.72	3390
CN1CCC(C(=O)NO)(S(=O)(=O)c2ccc(-c3ccc(OC(F)(F)C(F)F)cc3)cc2)CC1 [Example 146]	0.3	1240
CCN1CCC(C(=O)NO)(S(=O)(=O)c2ccc(-c3noc(-c4ccc(F)cc4)n3)cc2)CC1 [Example 147]	1.75	> 10000
CCN1CCC(C(=O)NO)(S(=O)(=O)c2ccc(-c3noc(-c4ccncc4)n3)cc2)CC1 [Example 148]	7.26	> 10000
CCN1CCC(C(=O)NO)(S(=O)(=O)c2ccc(-c3noc(-c4ccc(C(F)(F)F)cc4)n3)cc2)CC1 [Example 149]	0.76	> 10000
O=C(NO)C1(S(=O)(=O)c2ccc(-c3ccc(-c4ccccc4F)cn3)cc2)CCN(C2CC2)CC1 [Example 150]	0.37	1500
O=C(NO)C1(S(=O)(=O)c2ccc(-c3ccc(-c4ccccc4)cn3)cc2)CCN(C2CC2)CC1 [Example 151]	0.15	391
COCCN1CCC(C(=O)NO)(S(=O)(=O)c2ccc(-c3ccc(-c4ccccc4)cc3)cc2)CC1 [Example 152]	0.1	842
O=C(NO)C1(S(=O)(=O)c2ccc(-c3ccc(-c4ccccc4)cc3)cc2)CCN(C2CC2)CC1 [Example 153]	0.26	1310
O=C(NO)C1(S(=O)(=O)c2ccc(-c3cnc(OCC(F)(F)C(F)(F)F)cn3)cc2)CCOCC1 [Example 154]	0.13	1840
CCN1CCC(C(=O)NO)(S(=O)(=O)c2ccc(-c3ccc(-c4csc(C)n4)cc3)cc2)CC1 [Example 155]	0.66	3860
O=C(NO)C1(S(=O)(=O)c2ccc(-c3cnc(OCC(F)(F)C(F)(F)F)cn3)cc2)CCN(C2CC2)CC1 [Example 156]	0.39	7470
COCCN1CCC(C(=O)NO)(S(=O)(=O)c2ccc(-c3cnc(OCC(F)(F)C(F)(F)F)cn3)cc2)CC1 [Example 157]	0.37	9580
O=CN1CCC(C(=O)NO)(S(=O)(=O)c2ccc(-c3ccc(CCCC(F)(F)F)cn3)cc2)CC1 [Example 159]	0.1	3480
O=C(NO)C1(S(=O)(=O)c2ccc(-c3cnc(-c4cccs4)cn3)cc2)CCOCC1 [Example 160]	2.01	> 10000
